Experimental data reported in patent publication US11154551B2, “HDAC1,2 inhibitors and methods of using the same” (UNIVERSITY OF UTAH RESEARCH FOUNDATION, priority 2014, dated 2021).
Entries after “also recorded” stand apart in the source; their conditions may differ.

Tests used:
Hdac1,2 = experiment: in vitro enzyme assays, IC50 determination (FIG. 17A); format: biochemical
Method: (§1) (A). For IC50 determination, recombinant HDAC enzymes were treated with HDAC1,2 or HDAC3 inhibitors in in vitro HDAC assays. (B). Western blots for H3K23ac using extracts from Pre-B-ALL SupB15 cells treated with increasing dose of HDAC1,2 inhibitor (ACY1035). (C). Hdac1^FI/FI, 2^FI/FI cells were infected with Ad-Cre virus to delete HDAC1 and HDAC2 (HDAC1,2 null) or uninfected (WT). (D). Hdac3^FI/FI cells were either uninfected (WT) or infected with Ad-Cre virus to delete Hdac3. HDAC3-null cells were treated with DMSO or the HDAC1,2 selective inhibitor.
We have determined 2 μM (FIG. 17B) as the minimum dose for the ACY compounds, respectively, that when added to cells increased H3K23ac (a mark targeted by Hdac1,2 but not Hdac3).

[1] = tested on: SupB15 (Ph+PreB-ALL) cells; experiment: γH2AX immunofluorescence; format: cell-based, human; settings: 2 μM, 48 hours
Method: SupB15 cells were treated with 2 μM ACY1035, ACY1071, ACY957, or solvent (DMSO) for 48 hours. (A) Immunofluorescence with γH2AX was performed on treated SupB15 cells. The number of γH2AX foci was counted in around 100 cells for each treatment and classified into cells with no foci, 1-5, 6-10, and greater than 10 foci. (B) SupB15 cells treated with DMSO or ACY1035 for 48 hours were tested via neutral comet assay to measure the amount of double-strand breaks (DSBs), indicated by the tail.
BCR-ABL promotes DNA repair to prevent DNA damage accumulation in Philadelphia chromosome-positive (Ph+) leukemia cells. To examine the effect of various HDAC1,2-selective inhibitors on DNA repair and DNA damage response in Pre-B-ALL cells that express BCR-ABL, SupB15 (Ph+PreB-ALL) cells were treated with 2 μM ACY1035 or 2 μM ACY1071 or 2 μM ACY957 for 48 hours.

SUDHL4 cells = experiment: propidium-iodide / BrdU-PI cell cycle analysis; format: cell-based, human; settings: for progression through the cell cycle: 24 h; for progression through the cell cycle / cell cycle / G1 arrest and sub-G1: 2 μM ACY-957, 0.5 μM DZNEP, 0.5 μM GSK126; for cell cycle / G1 arrest and sub-G1: 72 h
Method: (§2) (B): Quantitation of the cell cycle data in (A), compiled from three independent analyses. The graphs plotted the average percentage of cells in each phase of the cell cycle. […] (C): FACS analysis following BrdU-PI staining of Karpas-422 and SUDHL4 cells was performed following a 48 h or 72 h treatment with ACY-957.
(§3) (B): Quantitation of the cell cycle analysis performed in (A). Data from three independent cell cycle analyses were compiled and average percentage cells with standard errors were shown in this panel.
(§4) Propidium-iodide Cell Cycle Analysis.
(§5) Since these DLBCL cells expressed a hyperactive form of EZH2, pharmacological inhibition of EZH2 activity was considered a therapeutic strategy. […] GSK126 was a S-adenosyl-methionine-competitive inhibitor of EZH2 methyltransferase activity, and DZNep was a S-adenosylhomocysteine hydrolase inhibitor that disrupted the components of the PRC2 complex, thereby causing reduced chromatin-associated EZH2 levels.

[2] = tested on: Karpas-422 and SUDHL4 cells; experiment: Western blot of chromatin extracts for H3K27ac and H3K27me3; format: cell-based, human; settings: 48 h, chromatin extracts
Method: Western blot analysis was done with anti-H3K27ac, H3K27me3 or EZH2 and histone H3 served as a loading control.
Following DMSO or ACY-957 treatment, cells were exposed to a 5Gy dose of ionizing radiation and allowed to recover for 30 minutes prior to chromatin extraction. Western blots were performed with anti-H3K27ac or anti-H3K27me3 with histone H3 serving as a loading control. (B-E): Karpas-422, SUDHL4, WSU-DLCL2 and HeLa cells were laser micro-irradiated and allowed to recover for 15 minutes before fixation and immunofluorescence staining with anti-γH2AX and anti-H3K27me3. Subsequently, the percentage of cells with H3K27me3 lines that co-localized with γH2AX were counted. Merge is the overlay of γH2AX and H3K27me3 pictures. (F-I): At least 100 cells with γH2AX lines were counted in each experiment. The quantitation shown was the average calculated from independent experiments+/−standard error. Quantitation from five, seven, five and six independent experiments performed in Karpas-422, SUDHL4, WSU-DLCL2 and HeLa cells, respectively, was used in the graph shown in this figure. (J): Karpas-422 cells were micro-irradiated with a laser and allowed to recover for 15 minutes before fixation and immunofluorescence staining was performed with anti-γH2AX and anti-H3K27ac.
Protein Preparation and Western Blot Analysis.
The histone H3K27 residue was subjected to reversible acetylation and methylation. […] We also treated cells with the second EZH2 inhibitor, GSK126 alone, or combined with ACY-957 (ACY-957+GSK126). […] Cells were treated for 48 h prior to preparing chromatin extracts for Western analysis using antibodies recognizing H3K27ac or H3K27me3.
We first examined whether inhibiting HDAC1,2 activity induced any change in global H3K27ac or H3K27me3 on chromatin following DNA damage and during DNA repair. SUDHL4 or Karpas-422 cells with or without exposure to ionizing radiation (IR) were initially treated with DMSO or ACY-957 for 48 hr. Chromatin extracts were prepared from these cells following a 30 min recovery period (the repair phase) and changes in histone modifications were examined by Western blotting.

[3] = tested on: SUDHL4 and Karpas-422 cells; experiment: γH2AX foci formation by immunofluorescence; format: cell-based, human; settings: 48 h; 2 μM ACY-957, 0.5 μM DZNEP, 0.5 μM GSK126
Method: (§6) The percentage of cells with 6 or greater γH2AX foci were counted in three independent experiments and at least 100 cells were counted in each experiment. […] Histones were purified using trichloroacetic acid extraction protocol (see Example 1). Western blot analysis was done with anti-γH2AX and histone H2AX served as the loading control. […] Following DMSO or ACY957 treatment, cells were exposed to a 5Gy dose of ionizing radiation and allowed to recover for 30 minutes prior to chromatin extraction. Western blot analysis was done with anti-γH2AX where total histone H2AX served as a loading control. (D): Karpas-422 cells were micro-irradiated with laser and allowed to recover for 15 minutes before fixation and immunofluorescence staining with anti-γH2AX, anti-HDAC1 and anti-HDAC2 antibodies was done.
Immunofluorescence. Cells were fixed in either 10% formalin or methanol-acetone (1:1) for 10 min at −20*C. The cells were then permeabilized with 0.5% Triton-X-100 in PBS for 5 min at room temperature (RT), blocked in 10% normal goat serum (Sigma) for 30 min and stained with primary antibody for 1 h at RT. Cells were incubated with secondary antibody (anti-mouse or anti-rabbit IgG, Alexa Fluor 488/546) at a 1:600 dilution for 45 min at RT, and counterstained with Hoechst 33342 (Sigma) at 1:1000 dilution to visualize the nuclei. Images were captured using Zeiss Axioskop mot plus microscope with a 40× lens and analyzed using the AxioVision software.

[4] = tested on: SUDHL4 and Karpas-422 cells; experiment: Western blot of γH2AX on chromatin, with or without ionizing radiation; format: cell-based, human; settings: 48 hr, Western
Method: as §6

Karpas-422 cells [5] = experiment: propidium-iodide / BrdU-PI cell cycle analysis; format: cell-based, human; settings: for progression through the cell cycle: 24 h; for progression through the cell cycle / cell cycle / sub-G1 (dead cells): 2 μM ACY-957, 0.5 μM DZNEP, 0.5 μM GSK126
Method: as §2
Cell cycle analysis of propidium-iodide stained cells was performed with fixed cells. […] (C): FACS analysis following BrdU-PI staining of Karpas-422 and SUDHL4 cells was performed following a treatment with 2 μM ACY-957, 50 nM doxorubicin or both for 48 h.
as §3, §4, §5
To test this possibility, cell cycle analysis following treatment of Karpas-422 with ACY-957, doxorubicin, or ACY-957 in combination with doxorubicin was performed.

Karpas-422 cells [6] = settings: publically available RNA seq data set of GSK126 treated cells; cited from earlier work
[7] = tested on: Hdac1,2 or Hdac3 knockout cell lines; experiment: Western blot of H4K5ac in conditional Hdac1,2 or Hdac3 knockout cells; format: cell-based, mouse
Method: as §1, with “For” for “(A). For”, “Hdac3.” for “Hdac3. HDAC3-null cells were treated with DMSO or the HDAC1,2 selective inhibitor.”

[8] = tested on: Karpas-422 and SUDHL4 cells; experiment: Western blot of histone acetylation marks in whole cell lysates; settings: 2 μM, 24 hours, vs DMSO
Method: Compounds were diluted in DMSO to 50 fold the final concentration and a ten point three fold dilution series was made. The compounds were diluted in assay buffer (50 mM HEPES, pH 7.4, 100 mM KCl, 0.001% Tween-20, 0.05% BSA, 20 μM tris(2-carboxyethyl)phosphine) to 6 fold their final concentration. The HDAC enzymes (purchased from BPS Biosciences) were diluted to 1.5 fold their final concentration in assay buffer. The tripeptide substrate (synthesized in house) and trypsin at 0.05 μM final concentration were diluted in assay buffer at 6 fold their final concentration. Five μl compounds and 20 μl of enzyme were added to wells of a black, opaque 384 well plate in duplicate. Enzyme and compound were incubated together at room temperature for 10 minutes. Five μl of substrate was added to each well, the plate was shaken for 60 seconds and placed into a Victor 2 microtiter plate reader. The development of fluorescence was monitored for 60 min and the linear rate of the reaction was calculated. The IC50 was determined using Graph Pad Prism by a four parameter curve fit.

Row | Compound | progression through the cell cycle (SUDHL4 cells) | cell cycle / G1 arrest and sub-G1 (SUDHL4 cells) | global H3K27me3 levels [2] | cells with γH2AX foci [3] | progression through the cell cycle (Karpas-422 cells [5]) | cell cycle / sub-G1 (dead cells) (Karpas-422 cells [5]; 48 h) | cell cycle / sub-G1 (dead cells) (Karpas-422 cells [5]; 72 h) | further results
1 | Nc1ccc(-c2ccncc2)cc1NC(=O)c1ccc2c(c1)cc(C1CC1)n2CCN1CCOCC1 [ACY-1071, N-(2-amino-5-(pyridin-4-yl)phenyl)-2-cyclopropyl-1-(2-morpholinoethyl)-1H-indole-5-carboxamide] |  |  |  |  |  |  |  | inhibition of Hdac1,2 activities compared to Hdac3 (IC50 values) (Hdac1,2): very selectively; DNA damage, quantitation of γH2AX foci [1]: statistically significant increase in DNA damage
2 | Nc1nccc2c1ncn2C1C=C(CO)C(O)C1O (stereo not shown) [DZNep, reference compound] | did not affect their progression through the cell cycle | modest increase in dead/sub-G1 SUDHL4 cells | without reducing global H3K27me3 levels | significant increase in the number of cells with greater than six γH2AX foci | did not affect their progression through the cell cycle | modest increase in the number of dead Karpas-422 cells | larger increase in the number of dead Karpas-422 cells | chromatin associated γH2AX [4]: greater increase in γH2AX levels on chromatin compared to GSK126
3 | CC[C@H](C)n1cc(C)c2c(C(=O)NCc3c(C)cc(C)[nH]c3=O)cc(-c3ccc(N4CCNCC4)nc3)cc21 [GSK126, reference compound] | did not affect their progression through the cell cycle | did not result in any defect in the cell cycle progression and/or survival | decrease in global H3K27me3 levels; also recorded: significant decrease in H3K27me3 | slight increase in γH2AX foci | did not affect their progression through the cell cycle | did not cause any change in the progression | did not result in any defect in the cell cycle progression and/or survival | cell cycle / G1 arrest (SUDHL4 cells; 48 h, 2 μM ACY-957, 0.5 μM GSK126): did not cause any change in the progression; BLIMP1 expression increase (Karpas-422 cells [6]): 2.4 fold; incubation required to decrease the viability (Karpas-422 cells [5]): 7 days
4 | Nc1ccccc1NC(=O)c1ccc(CNC(=O)OCc2cccnc2)cc1 [MS275, reference compound] |  |  |  |  |  |  |  | H4K5ac compared with deletion of Hdac1,2 [7]: greater increase in H4K5ac than the deletion of just Hdac1,2
5 | O=C(CCCCCCC(=O)Nc1ccccc1)NO [SAHA, Vorinostat, reference compound] |  |  |  |  |  |  |  | H3K23ac levels [8]: increase in H3K23ac
